Drawing on patent US9624228B2, “Inhibitors of ERK and methods of use” (KURA ONCOLOGY, INC., priority 2013, dated 2017), this text covers IC50 for 63 molecules.

ERK2 enzyme, sequence (P28482 whole entry): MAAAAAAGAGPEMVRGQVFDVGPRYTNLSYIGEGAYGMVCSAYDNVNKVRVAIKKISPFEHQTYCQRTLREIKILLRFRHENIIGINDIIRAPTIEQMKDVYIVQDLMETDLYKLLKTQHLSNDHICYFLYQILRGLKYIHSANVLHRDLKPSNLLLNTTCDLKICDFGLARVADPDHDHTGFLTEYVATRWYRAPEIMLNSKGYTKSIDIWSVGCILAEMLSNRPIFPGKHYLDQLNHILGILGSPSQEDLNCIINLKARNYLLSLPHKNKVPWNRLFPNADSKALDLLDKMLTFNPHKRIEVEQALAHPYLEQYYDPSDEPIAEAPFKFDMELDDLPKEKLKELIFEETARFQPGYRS

One assay addresses ERK2 enzyme (Homo sapiens (Human), UniProt P28482). Put plainly: Inhibition assay of ERK (Z'-LYTE kinase assay, Ser/Thr 3 peptide substrate). Format: biochemical. To be noted: In vitro ERK2 enzyme, 100 μM ATP. The method, then: The inhibition of ERK activity by the compounds disclosed herein was determined using the Z′-LYTE kinase assay kit (Life Technologies) with a Ser/Thr 3 peptide substrate (Life Technologies) according to manufacturers' instructions. […] The IC50 values for the compounds were determined with 3-fold serial dilutions in duplicate. […] The final DMSO concentration in the assay was 1%. Final reaction volume was 20 μL/well in 384-well plates. Kinase reactions were conducted or 1 hour followed by the assay development reaction (1 hour) in a 20 ul/well in a 384 well plate format.
In the case of `COc1ncc(-c2n[nH]c3cc4c(cc23)CN([C@@H]2CCCN(Cc3c(F)cccc3F)C2)C(=O)N4)cn1` [Compound 102], the IC50 was below 50 nM.

As for `COc1ncc(-c2n[nH]c3cc4c(cc23)CN(CC2CCN(CC3CC3)CC2)C(=O)N4)cn1` [Compound 82], the IC50 was 250 to 1000 nM. For `Cc1ncc(-c2n[nH]c3cc4c(cc23)CN(Cc2cccc(Cl)c2)C(=O)N4)cn1` [Compound 90], the IC50 is below 50 nM. Turning to `CS(=O)(=O)c1ccc(-c2n[nH]c3cc4c(cc23)CN(Cc2cccc(Cl)c2)C(=O)N4)cc1` [Compound 89], the IC50 is below 50 nM.

Consider `COc1ncc(-c2n[nH]c3cc4c(cc23)CN(CCN)C(=O)N4)cn1` [Compound 113], for which the concentration for half-maximal inhibition (IC50) was in the range of 50 to 250 nM.

The molecule `Cc1cc(-c2n[nH]c3cc4c(cc23)CN([C@H](C)c2ccc(Cl)cc2)C(=O)N4)ccn1` [Compound 16] gave an IC50 below 50 nM. In turn, `O=C1Nc2cc3[nH]nc(-c4cncnc4)c3cc2CN1Cc1cccc(Cl)c1` [Compound 123] showed an IC50 below 50 nM. Still for that read-out and setting: as for `COc1ncc(-c2n[nH]c3cc4c(cc23)CN([C@@H]2CCCN(Cc3c(F)cccc3OC)C2)C(=O)N4)cn1` [Compound 103], the figure is below 50 nM. Regarding `Cc1cc(-c2n[nH]c3cc4c(cc23)CN([C@@H]2CCCN(Cc3cc(F)cc(F)c3)C2)C(=O)N4)ccn1` [Compound 163], the IC50 was below 50 nM. `O=C1Nc2cc3[nH]nc(-c4ccnnc4)c3cc2CN1CCc1ccc(F)cc1` [Compound 110] had an IC50 below 50 nM. For `COc1ncc(-c2n[nH]c3cc4c(cc23)CN(CCc2cccc(Cl)c2)CC(=O)N4)cn1` [Compound 107], the IC50 was 250 to 1000 nM. Same read-out and setting: as for `Cc1cc(-c2n[nH]c3cc4c(cc23)CN(CCc2ccc(F)cc2)CC(=O)N4)ccn1` [Compound 67], the figure is 250 to 1000 nM; as for `Cc1cc(-c2n[nH]c3cc4c(cc23)CN(Cc2ccc(C#N)cc2)C(=O)N4)ccn1` [Compound 39], below 50 nM; as for `COc1ncc(-c2n[nH]c3cc4[nH]c(=O)c(C(C)c5cccc(Cl)c5)cc4cc23)cn1` (stereo not drawn) [Compound 129], 50 to 250 nM.

As for `O=C1Nc2cc3[nH]nc(-c4ccc5nncn5c4)c3cc2CN1Cc1cccc(Cl)c1` [Compound 59], the IC50 was below 50 nM. In turn, `O=C1Nc2cc3[nH]nc(-c4ccnnc4)c3cc2CN1Cc1ccc(F)cc1F` [Compound 114] registered an IC50 below 50 nM.

Take `O=C1Nc2cc3[nH]nc(-c4ccc(=O)[nH]c4)c3cc2CN1Cc1cccc(Cl)c1` [Compound 61]: the IC50 is below 50 nM. Same read-out and setting: as for `COc1ncc(-c2n[nH]c3cc4c(cc23)CN(Cc2cccc(Cl)c2)C(=O)N4)cn1` [Compound 68], the figure is below 50 nM; as for `Cc1cc(-c2n[nH]c3cc4[nH]c(=O)n(Cc5ccccc5)c4cc23)ccn1` [Compound 19], below 50 nM.

`Cc1cc(-c2n[nH]c3cc4c(cc23)CN(CCc2cccc(Cl)c2)C(=O)N4)ccn1` [Compound 50] registered an IC50 below 50 nM. Still for that read-out and setting: as for `Cc1cc(-c2n[nH]c3cc4c(cc23)CN(C2(c3ccc(F)cc3)CC2)C(=O)N4)ccn1` [Compound 17], the figure is 50 to 250 nM; as for `COc1ncc(-c2n[nH]c3cc4c(cc23)CN(CCCN)C(=O)N4)cn1` [Compound 112], below 50 nM; as for `Cc1cc(-c2n[nH]c3cc4c(cc23)CN([C@@H]2CCCN(CC3CCOCC3)C2)C(=O)N4)ccn1` [Compound 135], 50 to 250 nM.

In turn, `N#Cc1cccc(CN2Cc3cc4c(-c5ccnnc5)n[nH]c4cc3NC2=O)c1` [Compound 128] yielded an IC50 below 50 nM.

In the case of `Cc1cc(-c2n[nH]c3cc4c(cc23)CN(Cc2ccc(F)cc2)C(=O)N4)ccn1` [Compound 30], the IC50 is below 50 nM. For the molecule `O=C1Nc2cc3[nH]nc(-c4ccnnc4)c3cc2CN1Cc1cc(F)cc(F)c1` [Compound 127], the IC50 was below 50 nM. The same measure, in the same setting: as for `Cc1cc(-c2n[nH]c3cc4c(cc23)CN([C@@H]2CCCN(C3CCCCC3)C2)C(=O)N4)ccn1` [Compound 194], the figure is 50 to 250 nM; as for `Cc1cc(-c2n[nH]c3cc4c(cc23)CN([C@@H]2CCCN(Cc3cccc(F)c3F)C2)C(=O)N4)ccn1` [Compound 185], below 50 nM; as for `Cc1cc(-c2n[nH]c3cc4c(cc23)CN([C@H](C)c2ccccc2)C(=O)N4)ccn1` [Compound 2, (R)-3-(2-methylpyridin-4-yl)-6-(1-phenylethyl)-5,6-dihydro-1H-pyrazolo[4,3-g]quinazolin-7(8H)-one], below 50 nM.

Consider `COc1ncc(-c2n[nH]c3cc4c(cc23)CN([C@@H]2CCCN(Cc3ccccc3)C2)C(=O)N4)cn1` [Compound 104], for which the IC50 was below 50 nM. In the case of `Cc1cc(-c2n[nH]c3cc4c(cc23)CN(CCc2ccc(F)cc2)C(=O)N4)ccn1` [Compound 18], the IC50 was below 50 nM. On the same count and under the same terms, the same measure for `Cc1cc(-c2n[nH]c3cc4c(cc23)CN(C2CCN(Cc3ccccc3)CC2)C(=O)N4)ccn1` [Compound 70]: below 50 nM; for `N#Cc1ccc(-c2n[nH]c3cc4c(cc23)CN(Cc2cccc(Cl)c2)C(=O)N4)cc1` [Compound 94]: 50 to 250 nM.

Still in this assay, the particulars now being: In vitro, ERK2 enzyme 0.47 ng/μL, 100 μM ATP.
`COc1ncc(-c2n[nH]c3cc4c(cc23)CN([C@H]2CCCN(Cc3ccccc3)C2)C(=O)N4)cn1` [Compound 365] came in with an IC50 of 50 to 250 nM. `Cc1cc(-c2n[nH]c3cc4c(cc23)CN([C@@H]2CCN(CC(F)(F)F)C2)C(=O)N4)cc(C)n1` [Compound 237] gave an IC50 below 50 nM. As to `Cc1ncc(-c2n[nH]c3cc4c(cc23)CN([C@@H]2CCCN(Cc3ccccc3)C2)C(=O)N4)cn1` [Compound 292], the IC50 is below 50 nM. Still for that read-out and setting: as for `O=C1Nc2cc3[nH]nc(-c4ccncc4)c3cc2CN1[C@@H]1CN(CC(F)(F)F)C[C@H]1c1ccccc1` [Compound 342], the figure is below 50 nM; as for `Cc1cc(-c2n[nH]c3cc4[nH]c(=O)c(C5CCCN(Cc6ccccc6)C5)cc4cc23)ccn1` (stereo not drawn) [Compound 332], below 50 nM. `Cc1cc(-c2n[nH]c3cc4c(cc23)CN(Cc2ccc(C(F)(F)F)cc2)C(=O)N4)cc(C)n1` [Compound 233] had an IC50 below 50 nM. As for `Cn1cc(-c2n[nH]c3cc4c(cc23)CN([C@@H]2CCCN(Cc3ccc(F)cc3F)C2)C(=O)N4)cn1` [Compound 281], the 50% inhibitory concentration (IC50) is below 50 nM. On the same count and under the same terms, as for `Cn1nccc1-c1n[nH]c2cc3c(cc12)CN(Cc1cccc(Cl)c1)C(=O)N3` [Compound 235], the figure is 50 to 250 nM. For the molecule `Cc1cc(-c2n[nH]c3cc4c(cc23)CN(C(C)C2CCOCC2)C(=O)N4)ccn1` (stereo not drawn) [Compound 262], the IC50 was below 50 nM. As for `Cc1cc(-c2n[nH]c3cc4c(cc23)CN(CC2CCCC2)C(=O)N4)ccn1` [Compound 212], the IC50 is below 50 nM.

`Cc1cc(-c2n[nH]c3cc4c(cc23)CN([C@@H]2CN(C3CCOCC3)C[C@H]2c2ccccc2)C(=O)N4)ccn1` (mixture of isomers) [Compound 359] yielded an IC50 of 50 to 250 nM. The molecule `Cc1cc(-c2n[nH]c3cc4c(cc23)CN([C@H]2CCN(CC(F)(F)F)C2)C(=O)N4)cc(C)n1` [Compound 310] had a half-inhibitory concentration (IC50) below 50 nM. Still for that read-out and setting: the same measure for `CC(c1ccccc1)c1cc2cc3c(-c4ccc(=O)n(C)c4)n[nH]c3cc2[nH]c1=O` (stereo not drawn) [Compound 347]: below 50 nM; for `Cc1cc(-c2n[nH]c3cc4c(cc23)CN(C2CCOC(C)(C)C2)C(=O)N4)ccn1` (stereo not drawn) [Compound 219]: below 50 nM.

Consider `COc1ncc(-c2n[nH]c3cc4c(cc23)CN([C@@H]2CCN(CC(F)(F)F)C2)C(=O)N4)cn1` [Compound 276], for which the IC50 was below 50 nM. Same read-out and setting: the same measure for `Cc1cc(-c2n[nH]c3cc4c(cc23)CN([C@@H]2CCN(c3cccc(Cl)c3)C2)C(=O)N4)ccn1` [Compound 249]: 50 to 250 nM; for `Cc1cc(-c2n[nH]c3cc4c(cc23)CN([C@H]2CN(C)C[C@@H]2c2ccccc2)C(=O)N4)cc(C)n1` [Compound 307]: 50 to 250 nM; for `Cc1cc(-c2n[nH]c3cc4c(cc23)CN([C@@H]2CN(CC(F)(F)F)C[C@H]2c2ccccc2)C(=O)N4)cc(C)n1` [Compound 242]: 50 to 250 nM. In the case of `Cn1cc(-c2n[nH]c3cc4c(cc23)CN([C@@H]2CN(CC(F)(F)F)C[C@H]2c2ccccc2)C(=O)N4)cn1` [Compound 352], the half-maximal inhibitory concentration (IC50) is below 50 nM. On the same count and under the same terms, as for `Cc1cc(-c2n[nH]c3cc4c(cc23)CN([C@@H]2CN(CC(F)(F)F)C[C@H]2C2CC2)C(=O)N4)ccn1` (mixture of isomers) [Compound 319], the figure is 50 to 250 nM.

Take `Cc1cc(-c2n[nH]c3cc4c(cc23)CN([C@H]2CCCN(CC(F)(F)F)C2)C(=O)N4)ccn1` [Compound 309]: the IC50 is 50 to 250 nM. `Cc1cc(-c2n[nH]c3cc4c(cc23)CN([C@@H]2CN(C)C[C@H]2C(C)C)C(=O)N4)ccn1` (mixture of isomers) [Compound 327] registered an IC50 of 250 to 1000 nM. With `Cn1nccc1-c1n[nH]c2cc3c(cc12)CN([C@@H]1CCN(CC(F)(F)F)C1)C(=O)N3` [Compound 265], the IC50 was 50 to 250 nM. Turning to `Cc1cc(-c2n[nH]c3cc4[nH]c(=O)c(C5CCCN(Cc6cc(F)ccc6F)C5)cc4cc23)ccn1` (stereo not drawn) [Compound 336], the IC50 was below 50 nM.

Turning to `COc1cc(-c2n[nH]c3cc4c(cc23)CN([C@@H]2CCCN(Cc3ccccc3)C2)C(=O)N4)ccn1` [Compound 270], the IC50 was below 50 nM. `Cc1cc(-c2n[nH]c3cc4c(cc23)CN([C@@H]2CCCN(C3CCCC3)C2)C(=O)N4)ccn1` [Compound 215] had an IC50 of 50 to 250 nM. For the molecule `CC(c1ccccc1)c1cc2cc3c(-c4ccnc(N)c4)n[nH]c3cc2[nH]c1=O` (stereo not drawn) [Compound 344], the IC50 is below 50 nM.

Turning to `Cc1cc(-c2n[nH]c3cc4c(cc23)CN(C2CCC2)C(=O)N4)ccn1` [Compound 243], the IC50 was below 50 nM. In turn, `Cc1cc(-c2n[nH]c3cc4c(cc23)CN([C@@H]2CCCN(C(C)C(F)(F)F)C2)C(=O)N4)ccn1` (stereo partly drawn) [Compound 216] showed an IC50 below 50 nM. In turn, `COc1ncc(-c2n[nH]c3cc4c(cc23)CN(C2CN(Cc3ccccc3)CC(F)(F)C2)C(=O)N4)cn1` (stereo not drawn) [Compound 320] registered an IC50 of 50 to 250 nM.

By IC50 is commonly meant the concentration that inhibits the measured activity by half. A lower IC50 goes with higher potency.
